These results are taken from PubChem BioAssay AID1259407 (Chemical Carcinogenesis Research Information System (CCRIS), 2018).

The data set has as its system CCRIS mutagenicity, Ames/micronucleus/aberration tests. The experiment in a line: CCRIS mutagenicity studies.

Activity calls are given as the source filed them. No rule for the calls is given here.

As to `O=C(O)c1cc(O)c2c(c1)C(=O)c1cccc(O)c1C2=O`, the mutagenic call was “inactive; negative” (Test System: AMES SALMONELLA TYPHIMURIUM, Strain/Indicator: TA97A, Metabolic Activation: NONE, Method: STANDARD PLATE); “inactive; negative” (Test System: AMES SALMONELLA TYPHIMURIUM, Strain/Indicator: TA97A, Metabolic Activation: RAT, LIVER, S-9, AROCLOR 1254, Method: STANDARD PLATE); “inactive; negative” (Test System: AMES SALMONELLA TYPHIMURIUM, Strain/Indicator: TA98, Metabolic Activation: NONE, Method: STANDARD PLATE); “inactive; negative” (Test System: AMES SALMONELLA TYPHIMURIUM, Strain/Indicator: TA98, Metabolic Activation: RAT, LIVER, S-9, AROCLOR 1254, Method: STANDARD PLATE); “inactive; negative” (Test System: AMES SALMONELLA TYPHIMURIUM, Strain/Indicator: TA100, Metabolic Activation: NONE, Method: STANDARD PLATE); “inactive; negative” (Test System: AMES SALMONELLA TYPHIMURIUM, Strain/Indicator: TA100, Metabolic Activation: RAT, LIVER, S-9, AROCLOR 1254, Method: STANDARD PLATE). Moreover, the mutagenic call is, setting by setting: (Test System: AMES SALMONELLA TYPHIMURIUM, Strain/Indicator: TA102, Metabolic Activation: NONE, Method: STANDARD PLATE) “inactive; negative”; (Test System: AMES SALMONELLA TYPHIMURIUM, Strain/Indicator: TA102, Metabolic Activation: RAT, LIVER, S-9, AROCLOR 1254, Method: STANDARD PLATE) “inactive; negative”; (Test System: AMES SALMONELLA TYPHIMURIUM, Strain/Indicator: TA1535, Metabolic Activation: NONE, Method: STANDARD PLATE) “inactive; negative”; (Test System: AMES SALMONELLA TYPHIMURIUM, Strain/Indicator: TA1535, Metabolic Activation: RAT, LIVER, S-9, AROCLOR 1254, Method: STANDARD PLATE) “inactive; negative”; (Test System: AMES SALMONELLA TYPHIMURIUM, Strain/Indicator: TA1537, Metabolic Activation: NONE, Method: STANDARD PLATE) “inactive; negative”; (Test System: AMES SALMONELLA TYPHIMURIUM, Strain/Indicator: TA1537, Metabolic Activation: RAT, LIVER, S-9, AROCLOR 1254, Method: STANDARD PLATE) “inactive; negative”. In addition, the mutagenic call (Test System: AMES SALMONELLA TYPHIMURIUM, Strain/Indicator: TA1538, Metabolic Activation: NONE, Method: STANDARD PLATE) was “inactive; negative”; the mutagenic call (Test System: AMES SALMONELLA TYPHIMURIUM, Strain/Indicator: TA1538, Metabolic Activation: RAT, LIVER, S-9, AROCLOR 1254, Method: STANDARD PLATE) is “inactive; negative”; the mutagenic call (Test System: Ames Salmonella typhimurium, Strain/Indicator: TA102, Metabolic Activation: None, Method: Preincubation) is “active; positive”; the mutagenic call (Test System: Ames Salmonella typhimurium, Strain/Indicator: TA102, Metabolic Activation: Rat, Liver, S-9, Aroclor 1254 in 0.154 M KCl, Method: Preincubation) is “active; positive”; the mutagenic call (Test System: MOUSE LYMPHOMA, Strain/Indicator: L5178Y (TK+/TK-), Metabolic Activation: NONE, Method: SUSPENSION/PLATE) is “inactive; negative”; the mutagenic call (Test System: MOUSE LYMPHOMA, Strain/Indicator: L5178Y (TK+/TK-), Metabolic Activation: RAT, LIVER, S-9, AROCLOR 1254, Method: SUSPENSION/PLATE) was “inactive; negative”.
